The text below walks through data of patent EP1380292A1, “Tiaprid for the treatment of depressions” (Mewicon med. wiss. Beratung GmbH, priority 2002, dated 2004).

For assay [1], the system named is frontalem Kortex, Hippokampus, Striatum und Formatio Reticularis abgeleiteten Feldpotentiale. The experiment in a line: Tele-Stereo-EEG: changes of EEG frequencies in freely moving rats after i.p. administration. Particulars: for Veränderungen der EEG-Frequenzen: i.p., 40 bis 100 mg/kg, rat, significant at least at P < 5 %-Level. Type of assay: in vivo, Fischer-344 Ratten. On the procedure: Testverfahren 1 ((Tele-Stereo-EEG)
Die Veränderungen der EEG-Frequenzen nach Gabe von Salzlösung (Kontrolle) bzw. einer Dosis von Tiaprid (40 bis 100 mg/kg Körpergewicht) wurden bestimmt.
Der Stecker diente der Aufnahme eines 4-Kanal-Senders zur telemetrischen Übertragung der aus frontalem Kortex, Hippokampus, Striatum und Formatio Reticularis abgeleiteten Feldpotentiale. Die Signale wurden auf einem Computer System (Software "EEG-Analyse", Betriebsystem OS Science, Laborrechner "LabTeam" der Firma MediSyst, Linden DE) in Echtzeit einer Fast-Fourier-Transformation unterworfen und die Leistungsdichtespektren jeweils über 15 bis 60 Minuten gemittelt. Die Unterteilung der Spektren in 6 verschiedene Frequenzbereiche erlaubte die Erfassung pharmakospezifischer Veränderungen in Bezug auf die jeweils vor der Applikation gemessenen Vorwerte innerhalb dieser Frequenzbänder.
Zum Applikationsprotokoll der Substanzen: Die Substanzen wurden i.p. 45 Minuten nach Beginn der Messungen (Vorwert) injiziert. Fünf Minuten später wurden die Messungen wieder gestartet, mindestens über die nächsten 5 Stunden kontinuierlich analysiert und in 15-minütigen Perioden zusammengefasst. Die Testsubstanz wurde in einer Dosierung von 40 bis 100 mg/kg appliziert. Die experimentelle Serie wurde mit der Injektion von Salzlösung (Kontrolle) begonnen.
Die beobachteten Frequenzänderungen wurden mittels einer Diskriminanzanalyse mit den Ergebnissen mit herkömmlichen antidepressiv wirkenden Arzneimitteln sowie Arzneimitteln für andere Indikationen verglichen. Es wurden folgende Arzneimittel verwendet: 100 mg/kg Tiaprid (Tiapr), 2 mg/kg Paroxetin (Parox), 10 mg/kg Imipramin (Imip), 10 mg/kg Amitryptilin (Amit), 1 mg/kg Nomifensin (Nomi), 0.5 mg/kg Midazolam (Midaz), 60 mg/kg Phenobarbital (Pheno), 60 mg/kg Meprobamat (Meprob), 0.5 mg/kg Chlorpromazin (Chlorp), 0,25 mg/kg Haloperidol (Halop), 1 mg/kg Prothipendyl (Prothi), 10 mg/kg Thioridazin (Thior), 15 mg/kg Carbamazepin (Carba), 75 mg/kg Valproinsäure (Valpr), 6 mg/kg Phenytoin (Pheny). Des weiteren wurden geprüft: 1,3 Vol.-% Halothan (Haloth), 100 mg/kg Propofol (Propo), 1,0 Vol.-% Isofluran (Isofl), 4,5 Vol.-% Desfluran (Desfl), 1,8 Vol.-% Sevofluran (Sevofl) und 1,7 Vol.-% Enfluran (Enfl). Die Ergebnisse sind in Fig. 2 dargestellt.

Assay [2] relates to Pyramidenzellen im Hippokampus-Schnittpräparat der Ratte. In words: Long-term potentiation in the hippocampus slice preparation in vitro. Also noted: species or system CD-Ratten. On the procedure:
Testmethode 2 (Langzeitpotenzierung im Hippokampus-Schnittpräparat in vitro)
Die Wirkung von Tiaprid auf die Langzeitpotenzierung der Pyramidenzellen im Hippokampus-Schnittpräparat der Ratte wurde bestimmt.
Für die Durchführung dieser Studie wurden 15 erwachsene männliche CD-Ratten verwendet. Die Isolation des Hippokampus erfolgte an äthernarkotisierten und anschließend exsanguinierten Tieren. In Phosphat-gepufferter Salzlösung (NaCl: 124 mM; KCl: 5 mM; CaCl2: 2 mM; MgSO4: 2 mM; NaH2PO4: 1,25 mM; NaHCO3: 26 mM; Glucose: 10 mM; Kontroll-Lösung: künstliche Zerebral-Spinal-Flüssigkeit (ASCF, artificial cerebral spinal fluid); alle von der Firma Roth, Karlsruhe DE) wurde der mittlere Teil des Hippokampus mit Hilfe eines Schnellklebers aufgeblockt und mit einem Vibratom (Rhema Labortechnik) in 400 µm dicke Scheiben geschnitten. Die Aufbewahrung dieses Hippokampusschnittes erfolgte für mindestens 1 Stunde vor Versuchsbeginn (siehe S.J. Schiff, G.G. Somjen "The Effects of Temperature on Synaptic Transmission in Hippocampal Tissue Slices" Brain Research (1985), 345, 279-284) in einer mit Carbogen durchperlten Inkubationskammer.
Das Experiment selbst wurde in einer sog. "Base Unit mit Haas Top" (Firma Medical Systems Corp.) bei 35°C durchgeführt. Der mit Hilfe peristaltischer Pumpen (Infusomat, B. Braun Melsungen AG) superfundierte Hippokampusschnitt lag auf einem Stück Gaze. […]

The test system of another assay is D2/D3 Dopaminrezeptoren. Particulars: from the literature (Scatton et al., Eur Psychiatry 2001); cited from earlier work.

As for `CCN(CC)CCNC(=O)c1cc(S(C)(=O)=O)ccc1OC` [Tiaprid, N-2-(Diethylaminoethyl)-5-methylsulfonyl-2-methoxybenzamide], the “Muster der EEG-Frequenzänderungen ("Fingerprint", Diskriminanzanalyse)” value in assay [1] (discriminant analysis against antidepressants and drugs for other indications, 100 mg/kg Tiaprid) is “korrelieren in signifikanter Weise mit den Mustern, die für andere antidepressive Arzneimittel kennzeichnend sind”. The “Veränderungen der EEG-Frequenzen” value in assay [1] (first hour after administration) is “Abfall bei allen Frequenzen”; in assay [1] (next (second) hour after administration), “im Hippokampus und Striatum Theta- und Alpha2-Wellen nicht mehr so stark vermindert”. Also, the “Veränderungen der elektrischen Gehirnaktivität” value in assay [1] (i.p. single dose, compared with saline (0,9 % NaCl-Lösung), all brain areas, all frequencies) is “statistisch signifikantes Niveau im Vergleich zu Salzlösung”. In assay [2] (Tiaprid added to superfusion fluid, 2 concentrations, rat hippocampus slice, 35°C, N = 6 slices), the “Amplitude der Populationsspikes” value is given as “konzentrationsabhängig zu einer deutlichen Abnahme der Amplitude der Populationsspikes”. Further, in assay [2] (rat hippocampus slice in vitro, tetanic stimulus), the Langzeitpotenzierung entry is reported as “Unterdrückung der "Langzeitpotenzierung"”. In addition, in the assay on D2/D3 Dopaminrezeptoren, the Rezeptor-Bindungsprofil result was “selektive Blockade von D2/D3 Dopaminrezeptoren”.
